Laboratory results published in ChEMBL document CHEMBL1201862, “PubChem BioAssay data set” (2004).
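Step 1: Grow cells in 96-well plates. Step 2: Expose to compound for 48 hours at 5 concentrations. Step 3: Interpolate endpoints linearly; if unreached, use highest concentration. Abbreviation: GI50, concentration required for 50% inhibition of growth.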 The source made the active and inactive calls. Rule as the data show it: active = GI50 up to about 1.1 µM and inactive = higher.

Experiments:
Assay in all cases: NCI anticancer screen, dose series, 48 h
[1] = system: 786-0
[2] = system: A498
[3] = system: ACHN
[4] = system: BT-549
[5] = system: HCT-15
[6] = system: IGROV-1
[7] = system: K562
[8] = system: KM12
[9] = system: LOX IMVI
[10] = system: MDA-MB-435
[11] = system: MDA-N
[12] = system: Malme-3M
[13] = system: NCI-H23
[14] = system: NCI-H460
[15] = system: NCI-H522
[16] = system: SF-268
[17] = system: SR
[18] = system: SW-620
[19] = system: UACC-62
[20] = system: HOP-18

SMILES	GI50 [1]	GI50 [2]	GI50 [3]	GI50 [4]	GI50 [5] [µM]	GI50 [6]	GI50 [7]	GI50 [8]	GI50 [9]	GI50 [10]	GI50 [11]	GI50 [12]	GI50 [13]	GI50 [14]	GI50 [15]	GI50 [16]	GI50 [17]	GI50 [18]	GI50 [19]	GI50 [20]
Cc1ccc(C)c(NC(=O)NCc2ccc(Cl)cc2)c1	20.6 µM (inactive)	20.8 µM (inactive)	20.5 µM (inactive)	> 100 µM (inactive)	> 100	41.9 µM (inactive)	47.5 µM (inactive)	87.3 µM (inactive)	> 100 µM (inactive)	> 100 µM (inactive)	> 100 µM (inactive)	26.8 µM (inactive)	35.7 µM (inactive)	> 85.3 µM (inactive)	24.9 µM (inactive)	38.9 µM (inactive)	13.8 µM (inactive)	50.7 µM (inactive)	> 100 µM (inactive)	
Brc1ccc2c(-c3nc(-c4c[nH]c5ccccc45)cs3)c[nH]c2c1	21 µM (inactive)	22.7 µM (inactive)	43.1 µM (inactive)	34.8 µM (inactive)	16.8	30.5 µM (inactive)	13.1 µM (inactive)	10 µM (inactive)	10.4 µM (inactive)	34.6 µM (inactive)	41.9 µM (inactive)	> 100 µM (inactive)	24.9 µM (inactive)	11.8 µM (inactive)	48 µM (inactive)	> 56.8 µM (inactive)	13.2 µM (inactive)	35.4 µM (inactive)	27.5 µM (inactive)	
C=C1CCC2CC1C(C(=O)c1c[nH]c3ccccc13)=NC2(C)C (configuration not stated)	> 100 µM (inactive)	> 100 µM (inactive)	> 100 µM (inactive)	> 100 µM (inactive)	> 100	> 100 µM (inactive)	92.7 µM (inactive)	> 100 µM (inactive)	> 100 µM (inactive)	> 100 µM (inactive)	> 100 µM (inactive)	> 100 µM (inactive)	> 100 µM (inactive)	> 100 µM (inactive)	> 100 µM (inactive)	> 100 µM (inactive)	> 100 µM (inactive)	> 100 µM (inactive)	> 100 µM (inactive)	
C/C(=N\NC(=S)N1CCN(c2ccccn2)CC1)c1cccc2cccnc12	4.29 µM (inactive)	12 µM (inactive)	4.01 µM (inactive)	14.3 µM (inactive)	3.68	5.79 µM (inactive)	2.46 µM (inactive)	3.9 µM (inactive)	3.59 µM (inactive)	6.31 µM (inactive)	4.71 µM (inactive)	4.76 µM (inactive)	11.5 µM (inactive)	3.51 µM (inactive)	2.28 µM (inactive)	5.08 µM (inactive)	0.859 µM (active)	4.33 µM (inactive)	3.53 µM (inactive)	
Cn1ccnc1Sc1ccc(/C=N/c2ccc3nc(SCC(=O)NC4CCCCC4)sc3c2)cc1[N+](=O)[O-]	11.6 µM (inactive)	14.6 µM (inactive)	16.6 µM (inactive)	14.1 µM (inactive)	> 100	37.1 µM (inactive)	> 100 µM (inactive)	> 100 µM (inactive)	95.1 µM (inactive)	> 100 µM (inactive)	> 100 µM (inactive)	> 100 µM (inactive)	37.5 µM (inactive)	> 100 µM (inactive)	65.9 µM (inactive)	22.6 µM (inactive)	> 100 µM (inactive)	> 100 µM (inactive)	19.5 µM (inactive)	
CCOC(=O)C(=O)Nc1cccc(Cl)c1C	> 100 µM (inactive)		> 100 µM (inactive)		> 100	> 100 µM (inactive)	> 100 µM (inactive)	> 100 µM (inactive)	> 100 µM (inactive)			> 100 µM (inactive)	> 100 µM (inactive)	> 100 µM (inactive)	> 100 µM (inactive)	> 100 µM (inactive)		> 100 µM (inactive)	> 100 µM (inactive)	> 100 µM (inactive)
CN(C)c1ncnc2c1ncn2C1C=CC(COS(N)(=O)=O)C1 (configuration not stated)	> 100 µM (inactive)	> 100 µM (inactive)	> 100 µM (inactive)	> 100 µM (inactive)	> 100	> 100 µM (inactive)	82.4 µM (inactive)	> 100 µM (inactive)	96.2 µM (inactive)	> 100 µM (inactive)	> 100 µM (inactive)	> 100 µM (inactive)	80.9 µM (inactive)	> 100 µM (inactive)	47.2 µM (inactive)	> 100 µM (inactive)	> 100 µM (inactive)	> 100 µM (inactive)	> 100 µM (inactive)	
Cc1c(/C=N/NC(=S)N2CCCCC2)c(=O)n(-c2ccccc2)n1C	73.5 µM (inactive)	24.3 µM (inactive)	32.4 µM (inactive)	> 100 µM (inactive)	23.1	> 100 µM (inactive)	36.6 µM (inactive)	97.1 µM (inactive)	70.5 µM (inactive)	> 100 µM (inactive)	> 100 µM (inactive)	54.1 µM (inactive)	> 100 µM (inactive)	37.1 µM (inactive)	39.1 µM (inactive)	29.5 µM (inactive)	> 100 µM (inactive)	74.1 µM (inactive)	> 100 µM (inactive)	
Cc1cccc(-n2c(C)nc3ccc(NC(=S)Nc4ccccc4)cc3c2=O)c1	> 100 µM (inactive)	> 100 µM (inactive)	53.5 µM (inactive)	48.5 µM (inactive)	68.5	> 100 µM (inactive)	50.1 µM (inactive)	57.3 µM (inactive)	37.2 µM (inactive)	56 µM (inactive)	55.6 µM (inactive)	69.2 µM (inactive)	64.9 µM (inactive)	11 µM (inactive)	51.2 µM (inactive)	66.5 µM (inactive)	> 100 µM (inactive)	> 100 µM (inactive)	50.1 µM (inactive)	
COC(=O)c1ccccc1/C=C1\Cc2ccc(C)c(C)c2C1=O	51.4 µM (inactive)	> 100 µM (inactive)	> 100 µM (inactive)	> 100 µM (inactive)	> 100	> 100 µM (inactive)	> 100 µM (inactive)	> 100 µM (inactive)	> 100 µM (inactive)	> 100 µM (inactive)	> 100 µM (inactive)	> 100 µM (inactive)	> 100 µM (inactive)	> 100 µM (inactive)	65.5 µM (inactive)	54.5 µM (inactive)	> 100 µM (inactive)	> 100 µM (inactive)	> 100 µM (inactive)	
C/C1=C/C(C)CC(C)OC(=O)C(C)NC(=O)C(Cc2ccc(O)c(I)c2)N(C)C(=O)C(C)NC(=O)C(C)C1 (configuration not stated)	< 0.01 µM (active)	< 0.01 µM (active)	< 0.01 µM (active)	< 0.01 µM (active)	< 0.0164	< 0.01 µM (active)	< 0.01 µM (active)	< 0.01 µM (active)	< 0.01 µM (active)	< 0.01 µM (active)	< 0.01 µM (active)	< 0.0242 µM (active)	0.311 µM (active)	< 0.01 µM (active)	< 0.01 µM (active)	< 0.0166 µM (active)	< 0.01 µM (active)	< 0.01 µM (active)	< 0.0256 µM (active)	
CN(C)CCNC(=O)c1cnn(C)c1[N+](=O)[O-]	> 100 µM (inactive)	> 100 µM (inactive)	> 100 µM (inactive)	> 100 µM (inactive)	> 100	> 100 µM (inactive)	> 100 µM (inactive)	68.1 µM (inactive)	46.7 µM (inactive)	> 100 µM (inactive)	41.6 µM (inactive)	18.6 µM (inactive)	73.5 µM (inactive)	77.4 µM (inactive)	> 100 µM (inactive)	> 100 µM (inactive)	> 100 µM (inactive)	79.6 µM (inactive)	52.4 µM (inactive)	
O=C(N/N=C/c1cccc(O)c1O)N/N=C/c1cccc(O)c1O	15.1 µM (inactive)	32.1 µM (inactive)	13.9 µM (inactive)		8.45	48.1 µM (inactive)	6.97 µM (inactive)	26.5 µM (inactive)	18.7 µM (inactive)			22.4 µM (inactive)	25.2 µM (inactive)	30.1 µM (inactive)		5.93 µM (inactive)		17.5 µM (inactive)	11.9 µM (inactive)	19.2 µM (inactive)
N#Cc1c(Cl)c(C=O)c(=O)n2c1[nH]c1ccccc12	55.7 µM (inactive)	31.7 µM (inactive)	84.3 µM (inactive)	36.1 µM (inactive)	57.5	> 100 µM (inactive)	56.8 µM (inactive)	47.3 µM (inactive)	33.7 µM (inactive)	33.7 µM (inactive)	43.7 µM (inactive)	26.4 µM (inactive)	42.1 µM (inactive)	> 100 µM (inactive)	44 µM (inactive)	38.6 µM (inactive)	10 µM (inactive)	77.4 µM (inactive)	55.6 µM (inactive)	
O=C1c2ccccc2C(=O)N1NC1=NCCN1	> 100 µM (inactive)	> 100 µM (inactive)	> 100 µM (inactive)	> 100 µM (inactive)	> 100	> 100 µM (inactive)	> 100 µM (inactive)	> 100 µM (inactive)	> 100 µM (inactive)	> 100 µM (inactive)	> 100 µM (inactive)	> 100 µM (inactive)	> 100 µM (inactive)	> 100 µM (inactive)	> 100 µM (inactive)	> 100 µM (inactive)	> 100 µM (inactive)	> 100 µM (inactive)	> 100 µM (inactive)	
COc1ccc(C2Cc3cc(OC)c(OC)c(OC)c3C2=O)cc1 (configuration not stated)	> 100 µM (inactive)	> 100 µM (inactive)	> 100 µM (inactive)		> 100	> 100 µM (inactive)	80 µM (inactive)	> 100 µM (inactive)	> 100 µM (inactive)			> 100 µM (inactive)	87.9 µM (inactive)	> 100 µM (inactive)		> 100 µM (inactive)		> 100 µM (inactive)	> 100 µM (inactive)	> 100 µM (inactive)
